One test concerns MDA-MB-231 (2LMP) cells. Put plainly: Cell growth of MDA-MB-231 (2LMP) cells (WST). The following applies: Homo sapiens, read-out: IC50 of cell growth inhibition. The class given is cell-based.
For a further test, the target named is human Bcl-xL (Homo sapiens, UniProt Q07817). Put plainly: Fluorescence polarization in vitro Bcl-xL binding assay. The settings on record: displacement of Flu-Bak peptide. The text has this: For determination of the binding affinity to Bcl-xL protein a human Bcl-xL recombinant His-tagged protein without the C-terminus hydrophobic tail and the Bak-16mer BH3 peptide labeled with 6-carboxyfluorescein succinimidyl ester (FAM) were used.
(Polarisation of emitted light reports the rotation of a fluorescent probe.)

The target of the next test is Bcl-2 (Homo sapiens, UniProt P10415). Put plainly: Fluorescence polarization in vitro Bcl-2 binding assay. On the procedure: Bcl-2 used in this assay is a recombinant His-fused soluble protein. […] Inc., Research Triangle Park, N.C.). […] The unlabeled Bid peptide is used as the positive control. The Ki values were calculated using our developed equation for FP assay (Nikolovska-Coleska et al., Anal. Biochem., 2004, in press). The program for calculating a Ki value is available free of charge via the Internet at http://sw16.im.med.umich.edu/software/calc_ki/.

Consider 56 molecules from patent US8557812B2, “Small molecule inhibitors of anti-apoptotic BCL-2 family members and the uses thereof” (The Regents of the University of Michigan, priority 2004, dated 2013).

For orientation: pIC50 means −log10 of the IC50, conventionally taken in molar units.

pIC50: −log10 of the molar value.

Chain of human Bcl-xL (Q07817 1-209 limits assumed): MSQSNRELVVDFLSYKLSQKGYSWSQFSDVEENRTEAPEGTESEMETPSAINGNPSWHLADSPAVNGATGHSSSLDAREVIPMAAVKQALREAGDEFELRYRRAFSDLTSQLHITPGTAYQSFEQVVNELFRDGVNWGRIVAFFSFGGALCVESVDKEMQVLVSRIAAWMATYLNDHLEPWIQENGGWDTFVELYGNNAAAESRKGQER
Chain of Bcl-2 (P10415 92-205 limits assumed): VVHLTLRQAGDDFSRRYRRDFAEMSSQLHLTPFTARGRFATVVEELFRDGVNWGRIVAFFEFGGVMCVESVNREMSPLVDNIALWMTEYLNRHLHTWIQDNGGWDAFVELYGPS

`CCCCCCc1cc(C(C)C)c(O)c(O)c1O` [TM-103]: the pIC50 with MDA-MB-231 (2LMP) cells is 4.70 to 7.00. On the same count and under the same terms, the figure for `CCCCCC(=O)c1cc(C(C)C)c(O)c(O)c1O` [TM-104] is 4.70 to 7.00; for `CCCCCCCCCCCCCCCc1cc(C(C)C)c(O)c(O)c1O` [TM-109] it is 4.70 to 7.00.

As for `CCCCCCCCCCCCCCC(=O)c1cc(C(C)C)c(O)c(O)c1O` [TM-110], the pIC50 in the test with MDA-MB-231 (2LMP) cells is 4.70 to 7.00. Still for that read-out and setting: the figure for `CCCCCCCCCCC(=O)c1cc(C(CCCCCCCCCC)c2ccccc2)c(O)c(O)c1O` (stereo not shown) [TM-124] is < 4.70. On the same count and under the same terms, the figure for `CCCCCCCCCCC(c1ccccc1)c1cc(Cc2ccc(Br)cc2)c(O)c(O)c1O` (stereo not shown) [TM-125] is 4.70 to 7.00; for `CC(C)c1ccc(C(=O)c2cc(CCCc3ccccc3)c(O)c(O)c2O)cc1` [TM-126] it is 4.70 to 7.00. The same measure, in the same setting: the figure for `O=C(c1ccc(Br)cc1)c1cc(CCCc2ccccc2)c(O)c(O)c1O` [TM-128] is 4.70 to 7.00. With `CCCCCCCCCCCc1cc(O)c(O)c(O)c1CCCc1ccccc1` [TM-130], in the test with MDA-MB-231 (2LMP) cells, the pIC50 is 4.70 to 7.00. `CC(C)Cc1ccc(Cc2cc(CCCc3ccccc3)c(O)c(O)c2O)cc1` [TM-132]: the pIC50 in the test on MDA-MB-231 (2LMP) cells is 4.70 to 7.00. As to `CC(C)Cc1ccc(Cc2cc(CCCC3CCCCC3)c(O)c(O)c2O)cc1` [TM-134], in the test on MDA-MB-231 (2LMP) cells, the negative-log IC50 (pIC50) was 4.70 to 7.00.

Turning to `O=C(c1ccc(Cc2cc(CCCc3ccccc3)c(O)c(O)c2O)cc1)c1cccc(O)c1O` [TM-135], the pIC50 in the test with MDA-MB-231 (2LMP) cells is 4.70 to 7.00. Turning to `Oc1cccc(Cc2ccc(Cc3cc(CCCC4CCCCC4)c(O)c(O)c3O)cc2)c1O` [TM-136], the pIC50 in the test on MDA-MB-231 (2LMP) cells was 4.70 to 7.00. The same measure, in the same setting: for `O=C(c1cccc(Br)c1)c1cc(CCCc2ccccc2)c(O)c(O)c1O` [TM-137] the value was 4.70 to 7.00; for `Cc1cc(C(=O)c2cc(Cc3ccccc3)c(O)c(O)c2O)c(C(C)C)cc1O` [TM-143], < 4.70; for `Cc1cc(Cc2cc(Cc3ccccc3)c(O)c(O)c2O)c(C(C)C)cc1Oc1ccc(C(F)(F)F)cc1[N+](=O)[O-]` [TM-144], 4.70 to 7.00. Consider `Cc1cc(Cc2cc(Cc3ccccc3)c(O)c(O)c2O)c(C(C)C)cc1Oc1ccc([N+](=O)[O-])c(C(F)(F)F)c1` [TM-145], for which the pIC50 with MDA-MB-231 (2LMP) cells was 4.70 to 7.00. Turning to `Cc1cc(Cc2cc(Cc3ccccc3)c(O)c(O)c2O)c(C(C)C)cc1Oc1ccc([N+](=O)[O-])cc1C(F)(F)F` [TM-146], in the test on MDA-MB-231 (2LMP) cells, the pIC50 is 4.70 to 7.00.

Consider `Cc1cc(Cc2cc(Cc3ccccc3)c(O)c(O)c2O)c(C(C)C)cc1Oc1ccnc2ccccc12` [TM-147], for which the negative-log IC50 (pIC50) in the test with MDA-MB-231 (2LMP) cells is 4.70 to 7.00. As for `Cc1cc(C(=O)c2cc(Cc3ccccc3)c(O)c(O)c2O)c(C(C)C)cc1Oc1ccc(C(F)(F)F)cc1[N+](=O)[O-]` [TM-148], the pIC50 in the test on MDA-MB-231 (2LMP) cells was 4.70 to 7.00. Regarding `Oc1ccc(Cc2ccc(Oc3ccccc3)cc2)c(O)c1O` [TM-157], the pIC50 at human Bcl-xL was < 6.00.

For the molecule `CC(C)c1cc(Cc2ccc(Oc3ccccc3)cc2)c(O)c(O)c1O` [TM-159], the pIC50 on human Bcl-xL was < 6.00. Still for that read-out and setting: the figure for `Oc1c(CCc2ccccc2)cc(Cc2ccc(Oc3ccccc3)cc2)c(O)c1O` [TM-162] is < 6.00. Regarding `Oc1c(CCCc2ccccc2)cc(Cc2ccc(Oc3ccccc3)cc2)c(O)c1O` [TM-163], the pIC50 on human Bcl-xL was < 6.00. On to `O=C(c1cc(C(=O)c2cccc3ccccc23)c(O)c(O)c1O)c1cccc2ccccc12` [TM-174], for which the pIC50 on Bcl-2 and on human Bcl-xL was < 6.00 each time. Take `O=C(c1ccc2ccccc2c1)c1cc(C(=O)c2ccc3ccccc3c2)c(O)c(O)c1O` [TM-175]: the pIC50 on Bcl-2 and on human Bcl-xL was < 6.00 in each case. For the molecule `O=C(c1cc(C(=O)C2N=C3C=CC=CC3S2)c(O)c(O)c1O)C1N=C2C=CC=CC2S1` (stereo not shown) [TM-176], the pIC50 on Bcl-2 and at human Bcl-xL was < 6.00 each time. Consider `COc1c(C(=O)C2N=C3C=CC=CC3S2)cc(C(=O)C2N=C3C=CC=CC3S2)c(O)c1O` (stereo not shown) [TM-178], for which the pIC50 on Bcl-2 and at human Bcl-xL was < 6.00 in each case.

Consider `O=C(c1ccc(Oc2ccccc2)cc1)c1cc(C(=O)c2nc3ccccc3s2)c(O)c(O)c1O` [TM-179], for which the pIC50 on human Bcl-xL is < 6.00. On the same count and under the same terms, the figure for `O=C(c1ccc(Oc2ccc(S(=O)(=O)N3CCCCC3)c(Cl)c2)cc1)c1cc(C(=O)c2nc3ccccc3s2)c(O)c(O)c1O` [TM-180] is < 6.00. With `O=C(c1ccc(Oc2ccccc2)cc1)c1cc(C(=O)c2nc3ccccc3o2)c(O)c(O)c1O` [TM-183], the pIC50 on human Bcl-xL is < 6.00. Take `O=C(c1cc(S(=O)(=O)N2CCc3ccc(S(=O)(=O)N4CCCCC4)cc3C2)c(O)c(O)c1O)N1CCc2ccccc2C1` [TM-190]: the pIC50 is ≥ 6.00 at Bcl-2 and < 6.00 at human Bcl-xL.

As to `O=C(NCc1ccccc1)c1cc(S(=O)(=O)N2CCc3ccc(S(=O)(=O)N4CCCCC4)cc3C2)c(O)c(O)c1O` [TM-192], the negative logarithm of the IC50 (pIC50) at Bcl-2 is ≥ 6.00; at human Bcl-xL, < 6.00. As to `O=C(c1cc(S(=O)(=O)N2CCc3ccccc3C2)c(O)c(O)c1O)N1CCc2ccc(S(=O)(=O)N3CCCCC3)cc2C1` [TM-193], the pIC50 on Bcl-2 and at human Bcl-xL was < 6.00 in each case. Turning to `CC(C)CNS(=O)(=O)c1ccc2c(c1)CN(C(=O)c1cc(S(=O)(=O)N3CCc4ccccc4C3)c(O)c(O)c1O)CC2` [TM-194], the pIC50 on Bcl-2 and on human Bcl-xL was < 6.00 in each case. As to `O=C(c1cc(S(=O)(=O)N2CCc3ccccc3C2)c(O)c(O)c1O)N1CCc2ccc(S(=O)(=O)Nc3ccccc3)cc2C1` [TM-195], the pIC50 at Bcl-2 and at human Bcl-xL was < 6.00 each time. `O=C(c1cc(S(=O)(=O)N2CCc3ccccc3C2)c(O)c(O)c1O)N1CCc2ccc(S(=O)(=O)NCc3ccccc3)cc2C1` [TM-196]: the pIC50 on Bcl-2 and at human Bcl-xL was < 6.00 throughout.

In the case of `O=C(c1cc(S(=O)(=O)N2CCc3ccccc3C2)c(O)c(O)c1O)N1CCc2ccc(S(=O)(=O)NCCc3ccccc3)cc2C1` [TM-197], the pIC50 at Bcl-2 was ≥ 6.00; on human Bcl-xL, < 6.00. For `O=C(c1cc(S(=O)(=O)N2CCc3ccccc3C2)c(O)c(O)c1O)N1CCc2ccc(S(=O)(=O)NCC(c3ccccc3)c3ccccc3)cc2C1` [TM-198] the same measures were < 6.00 and < 6.00. Consider `NC(=O)[C@H](Cc1ccccc1)NS(=O)(=O)c1ccc2c(c1)CN(C(=O)c1cc(S(=O)(=O)N3CCc4ccccc4C3)c(O)c(O)c1O)CC2` [TM-199], for which the pIC50 on Bcl-2 and at human Bcl-xL was < 6.00 throughout. `O=C(c1cc(S(=O)(=O)N2CCc3ccccc3C2)c(O)c(O)c1O)N1CCc2ccc(S(=O)(=O)N[C@@H](Cc3ccccc3)C(=O)N3CCCCC3)cc2C1` [TM-1200]: the pIC50 on Bcl-2 and at human Bcl-xL was < 6.00 throughout. For the molecule `CN(Cc1ccccc1)S(=O)(=O)c1cc(C(=O)N2CCc3ccc(S(=O)(=O)NCCc4ccccc4)cc3C2)c(O)c(O)c1O` [TM-1201], the pIC50 at Bcl-2 and on human Bcl-xL was < 6.00 each time. In the case of `O=C(c1cc(S(=O)(=O)N2CCc3ccccc3C2)c(O)c(O)c1O)N1CCc2ccc(S(=O)(=O)N[C@@H](Cc3ccccc3)C(=O)N3CCN(C(=O)C(F)(F)F)CC3)cc2C1` [TM-1202], the pIC50 on Bcl-2 and on human Bcl-xL was < 6.00 each time.

Turning to `O=C(c1cc(S(=O)(=O)N2CCc3ccccc3C2)c(O)c(O)c1O)N1CCc2ccc(S(=O)(=O)N3CCC(Cc4ccccc4)CC3)cc2C1` [TM-1203], the pIC50 at Bcl-2 is ≥ 6.00; on human Bcl-xL it was < 6.00. For `CN(CCc1ccccc1)S(=O)(=O)c1cc(C(=O)N2CCc3ccc(S(=O)(=O)NCCc4ccccc4)cc3C2)c(O)c(O)c1O` [TM-1205] the same measures were ≥ 6.00 and < 6.00.

Turning to `CN(CCc1ccccc1)S(=O)(=O)c1ccc2c(c1)CN(C(=O)c1cc(S(=O)(=O)N3CCc4ccccc4C3)c(O)c(O)c1O)CC2` [TM-1207], the figures for the pIC50 at Bcl-2 and at human Bcl-xL were ≥ 6.00 and < 6.00, respectively. For `O=C(c1cc(S(=O)(=O)N2CCc3ccccc3C2)c(O)c(O)c1O)N1CCc2ccc(S(=O)(=O)NCCc3cccc(Cl)c3)cc2C1` [TM-1208] the same measures were ≥ 6.00 and < 6.00.

As to `O=C(c1cc(S(=O)(=O)N2CCc3ccccc3C2)c(O)c(O)c1O)N1CCc2ccc(S(=O)(=O)NCCc3ccc(Cl)cc3)cc2C1` [TM-1209], the pIC50 at Bcl-2 was ≥ 6.00; on human Bcl-xL, < 6.00.

In the case of `NS(=O)(=O)c1ccc(CCNS(=O)(=O)c2ccc3c(c2)CN(C(=O)c2cc(S(=O)(=O)N4CCc5ccccc5C4)c(O)c(O)c2O)CC3)cc1` [TM-1210], the figures for the pIC50 on Bcl-2 and at human Bcl-xL were ≥ 6.00 and < 6.00, respectively. For `O=C(c1cc(S(=O)(=O)N2CCc3ccccc3C2)c(O)c(O)c1O)N1CCc2ccc(S(=O)(=O)NCCc3cccc(Oc4ccccc4)c3)cc2C1` [TM-1211] the same measures were ≥ 6.00 and < 6.00. For `O=C(c1cc(S(=O)(=O)N2CCc3ccccc3C2)c(O)c(O)c1O)N1CCc2ccc(S(=O)(=O)NCCc3ccc(Oc4ccccc4)cc3)cc2C1` [TM-1212], the negative-log IC50 (pIC50) on Bcl-2 and at human Bcl-xL was < 6.00 in each case. Turning to `O=C(c1cc(S(=O)(=O)N2CCc3ccccc3C2)c(O)c(O)c1O)N1CCc2ccc(S(=O)(=O)NCCCc3ccccc3)cc2C1` [TM-1213], the pIC50 at Bcl-2 is ≥ 6.00; on human Bcl-xL it was < 6.00.

`O=C(c1cc(S(=O)(=O)N2CCc3ccccc3C2)c(O)c(O)c1O)N1CCc2ccccc2C1` [TM-1214]: the pIC50 at Bcl-2 and on human Bcl-xL was < 6.00 throughout. With `CNS(=O)(=O)c1ccc2c(c1)CN(C(=O)c1cc(S(=O)(=O)N3CCc4ccccc4C3)c(O)c(O)c1O)CC2` [TM-1215], the pIC50 at Bcl-2 and on human Bcl-xL was < 6.00 in each case. Take `CCC(CC)CNS(=O)(=O)c1ccc2c(c1)CN(C(=O)c1cc(S(=O)(=O)N3CCc4ccccc4C3)c(O)c(O)c1O)CC2` [TM-1216]: the pIC50 on Bcl-2 was ≥ 6.00; at human Bcl-xL, < 6.00. The matching figures for `CNS(=O)(=O)c1cc(C(=O)N2CCc3ccc(S(=O)(=O)NCCc4ccccc4)cc3C2)c(O)c(O)c1O` [TM-1217]: < 6.00 and < 6.00.
